From ChEMBL document CHEMBL5050847, “Targeting pleckstrin-2 for treating cancer” (2020)
The source made the active and inactive calls. The rule behind the calls is not given here.

Legend:
[1] = Inhibition of Plek2 in Ter119-positive mouse fetal liver erythroid progenitor cells cultured in erythropoietin containing medium assessed as decrease in terminal enucleation of erythroblasts measured by HTS assay; format: tissue-based
COS-7 = experiment: Inhibition of Plek2 in African green monkey COS-7 cells overexpressing Plek2 at 10 uM assessed as decrease in lamellipodia formation; format: cell-based; details: Chlorocebus aethiops
Homo sapiens = species: Homo sapiens; experiment: Binding affinity towards GST-tagged Plek2 (unknown origin) at 200 uM measured by isothermal calorimetry (ITC) assay relative to control
[2] = Inhibition of Plek2 in Ter119-positive mouse fetal liver erythroid progenitor cells cultured in erythropoietin containing medium assessed as decrease in cell proliferation measured by HTS assay; format: tissue-based
Bone marrow cell = experiment: Inhibition of Plek2 in mouse bone marrow lineage negative cells expressing wild-type Plek2 and treated with erythropoietin at 10 uM assessed as inhibition of Akt phosphorylation measured by western blot analysis; format: cell-based
[3] = Toxicity in wild type mouse assessed as hematologic abnormalities at 40 mg/kg, ip administered every 2 days for 8 days; format: organism-based; details: in vivo, 48 h, time 2 day
Mus musculus [4] = experiment: Protection against erythropoietin-induced myeloproliferation in wild type mouse assessed as reduction in erythrocytosis in spleen red pulp at 40 mg/kg, ip administered every 2 days for 8 days; format: functional, organism-based; details: time 2.0 day
Mus musculus [5] = experiment: Protection against Jak2 V617F-konckin induced myeloproliferation in mouse assessed as reduction in spleen size at 25 mg/kg, ip administered once every two days; format: functional, organism-based; details: time 2.0 day
Jurkat = experiment: Effect on Plek2 cell membrane localization in human Jurkat cells overexpressing GFP-Plek2 at 100 nM measured by real-time confocal imaging analysis; format: functional, cell-based
Mus musculus [6] = experiment: Protection against erythropoietin-induced myeloproliferation in wild type mouse assessed as reduction in leucocytosis at 40 mg/kg, ip administered every 2 days for 8 days; format: functional, organism-based; details: time 2.0 day
[7] = Inhibition of Plek2 in Ter119-negative mouse fetal liver erythroid progenitor cells overexpressing Plek2 cultured in erythropoietin containing medium assessed as decrease in cell proliferation measured by HTS assay; format: tissue-based
Mus musculus [8] = experiment: Protection against erythropoietin-induced myeloproliferation in wild type mouse assessed as improvement in lung vasculature at 40 mg/kg, ip administered every 2 days for 8 days; format: functional, organism-based; details: time 2.0 day
Mus musculus [9] = experiment: Protection against Jak2 V617F-konckin induced myeloproliferation in mouse assessed as reduction in extramedullary erythropoiesis at 25 mg/kg, ip administered once every two days; format: functional, organism-based; details: time 2.0 day
Mus musculus [10] = experiment: Protection against Jak2 V617F-konckin induced myeloproliferation in mouse assessed as normalization of white blood cell count at 25 mg/kg, ip administered once every two days; format: functional, organism-based; details: time 2.0 day
Mus musculus [11] = experiment: Protection against Jak2 V617F-konckin induced myeloproliferation in mouse assessed as reduction in vascular occlusions in lung at 25 mg/kg, ip administered once every two days; format: functional, organism-based; details: time 2.0 day
Mus musculus [12] = experiment: Protection against erythropoietin-induced myeloproliferation in wild type mouse assessed as reduction in reticulocytosis at 40 mg/kg, ip administered every 2 days for 8 days; format: functional, organism-based; details: time 2.0 day
Mus musculus [13] = experiment: Protection against erythropoietin-induced myeloproliferation in wild type mouse assessed as reduction in vascular occlusions at 40 mg/kg, ip administered every 2 days for 8 days; format: functional, organism-based; details: time 2.0 day
[14] = Toxicity in Jak2 V617F-konckin induced myeloproliferation in mouse assessed as induction of side effects at 25 mg/kg, ip administered once every two days; format: organism-based; details: in vivo, 48 h, time 2 day
[15] = Acute toxicity in mouse assessed as drug tolerability time at 40 mg/kg, ip administered as single dose; format: organism-based; details: in vivo
Mus musculus [16] = experiment: Protection against erythropoietin-induced myeloproliferation in wild type mouse assessed as reduction in splenomegaly at 40 mg/kg, ip administered every 2 days for 8 days; format: functional, organism-based; details: time 2.0 day
Mus musculus [17] = experiment: Protection against Jak2 V617F-konckin induced myeloproliferation in mouse assessed as reduction in red blood cell count at 25 mg/kg, ip administered once every two days; format: functional, organism-based; details: time 2.0 day

## O=C(c1c[nH]c2ccccc12)C(O)C(c1ccccc1)N1CCN(CCO)CC1 (stereo unspecified)
[1]
  IC50: 40 µM
COS-7
  inhibition: Active
Homo sapiens
  Activity: Active
[2]
  IC50: 40 µM

## CN1CCN(C(c2ccc(Cl)cc2)C(O)C(=O)c2c[nH]c3ccccc23)CC1 (stereo unspecified)
Bone marrow cell
  inhibition: Active
[3]
  Activity: Non-Toxic
Mus musculus [4]
  Activity: Active
Mus musculus [5]
  Activity: Active
Jurkat
  Activity: Active
Mus musculus [6]
  Activity: Active
[7]
  IC50: < 10 µM
Mus musculus [8]
  Activity: Active
Mus musculus [9]
  Activity: Active
Mus musculus [10]
  Activity: Active
Mus musculus [11]
  Activity: Active
Mus musculus [12]
  Activity: Active
Mus musculus [13]
  Activity: Active
[14]
  Activity: Non-Toxic
[15]
  Time: 2 days
Mus musculus [16]
  Activity: Active
Mus musculus [17]
  Activity: Active
